# Source: patent US20090281143A1, “Dose Reduction of a Cannabinoid CB1 Receptor Antagonist in the Treatment of Overweight or Obesity” (N-Gene Research Laboratories, Inc., priority 2007, published 2009)
# Assay: Inhibition of body weight gain in high fat diet exposed mice
# Conditions: for weight gain in relation to that of the control group fed with standard laboratory chow: excess over chow control
# Description: OF-1 female mice weighing about 18-20 g at the beginning of the experiment were used in the study. […] The high fat diet consisted of palatable food that contained 50% fat. The group on standard laboratory chow was also treated with vehicle. Treatment was performed with all of the drugs, orally, at 5 ppm. The weight of the animals was measured weekly.
compound,measurement,setting,value
"Cc1c(C(=O)NN2CCCCC2)nn(-c2ccc(Cl)cc2Cl)c1-c1ccc(Cl)cc1 [rimonabant, N-piperidino-5-(4-chlorophenyl)-1-(2,4-dichlorophenyl)-4-methylpyrazole-3-carboxamide]",Body weight gain in g after 2 weeks,"rimonabant 2 mg/kg daily oral, after 2 weeks",10.6 g
same,Body weight gain in g after 3 weeks,"rimonabant 2 mg/kg daily oral, after 3 weeks",14.1 g
same,weight gain in relation to that of the control group fed with standard laboratory chow,"rimonabant 2 mg/kg, after 2 weeks",22%
same,weight gain in relation to that of the control group fed with standard laboratory chow,"rimonabant 2 mg/kg, after 3 weeks",33%
same,Body weight gain in g after 2 weeks,"rimonabant 10 mg/kg daily oral, after 2 weeks",10.2 g
same,Body weight gain in g after 3 weeks,"rimonabant 10 mg/kg daily oral, after 3 weeks",13.0 g
same,weight gain in relation to that of the control group fed with standard laboratory chow,"rimonabant 10 mg/kg, after 2 weeks",17%
same,weight gain in relation to that of the control group fed with standard laboratory chow,"rimonabant 10 mg/kg, after 3 weeks",22.6%
